Test results reported in ChEMBL document CHEMBL3885881, “DrugMatrix”.

Organism: Rattus norvegicus
Test: DrugMatrix - Regimen: Daily Repeat
Type: toxicity, organism-based, Sprague-Dawley
Design: regimen Daily Repeat, gender Male, age 6-8 weeks
Conditions: in vivo, po, route oral GAVAGE, vehicle 100 % WATER; for ABSOLUTE BASOPHIL / ABSOLUTE EOSINOPHIL / ABSOLUTE LYMPHOCYTE / ABSOLUTE MONOCYTE / ABSOLUTE SEGMENTED NEUTROPHIL / BASOPHIL / EOSINOPHIL / ERYTHROCYTE COUNT / HEMATOCRIT / HEMOGLOBIN / LEUKOCYTE COUNT / LYMPHOCYTE / MEAN CORPUSCULAR HEMOGLOBIN / MEAN CORPUSCULAR HEMOGLOBIN CONCENTRATION / MEAN CORPUSCULAR VOLUME / MONOCYTE / NEUTROPHIL / NUCLEATED RED BLOOD CELLS / PLATELET COUNT: tissue Blood; for ALANINE AMINOTRANSFERASE / ALBUMIN / ALKALINE PHOSPHATASE / ASPARTATE AMINOTRANSFERASE / BLOOD UREA NITROGEN / CARBON DIOXIDE / CHLORIDE / CHOLESTEROL / CREATINE PHOSPHOKINASE / CREATININE / GLUCOSE / LACTATE DEHYDROGENASE / LIPASE / PHOSPHORUS / POTASSIUM / SODIUM / TOTAL BILIRUBIN / TOTAL PROTEIN / URIC ACID: tissue Plasma
[1] = 0 mg/kg, 72 h, dose level Control, time 3 day
[2] = 0 mg/kg, 120 h, dose level Control, time 5 day
[3] = 10 mg/kg, 72 h, dose level Low, time 3 day

Structure (SMILES): CC(C)(C)NC[C@H](O)COc1nsnc1N1CCOCC1 [TIMOLOL]
- ABSOLUTE BASOPHIL [1]: 0 CELLS/uL
- ABSOLUTE EOSINOPHIL [1]: 0 CELLS/uL
- ABSOLUTE LYMPHOCYTE [1]: 8482.5 CELLS/uL
- ABSOLUTE MONOCYTE [1]: 63.83 CELLS/uL
- ABSOLUTE SEGMENTED NEUTROPHIL [1]: 887 CELLS/uL
- BASOPHIL [1]: 0%
- EOSINOPHIL [1]: 0%
- ERYTHROCYTE COUNT [1]: 5.49 x10E6/uL
- HEMATOCRIT [1]: 34.5%
- HEMOGLOBIN [1]: 13.33 G/DL
- LEUKOCYTE COUNT [1]: 9.43 x10E3/uL
- LYMPHOCYTE [1]: 90.17%
- MEAN CORPUSCULAR HEMOGLOBIN [1]: 24.3 pg
- MEAN CORPUSCULAR HEMOGLOBIN CONCENTRATION [1]: 38.63 G/DL
- MEAN CORPUSCULAR VOLUME [1]: 62.88 fL
- MONOCYTE [1]: 0.67%
- NEUTROPHIL [1]: 9.17%
- NUCLEATED RED BLOOD CELLS [1]: 0.67 /100WBC
- PLATELET COUNT [1]: 1022.83 x10E3/uL
- ALANINE AMINOTRANSFERASE [1]: 50.5 u/L
- ALBUMIN [1]: 4.08 G/DL
- ALKALINE PHOSPHATASE [1]: 368.33 u/L
- ASPARTATE AMINOTRANSFERASE [1]: 87.5 u/L
- BLOOD UREA NITROGEN [1]: 12.83 mg/dL
- CARBON DIOXIDE [1]: 32.83 mmol/L
- CHLORIDE [1]: 99.67 MEQ/L
- CHOLESTEROL [1]: 79.67 mg/dL
- CREATINE PHOSPHOKINASE [1]: 585 u/L
- CREATININE [1]: 0.22 mg/dL
- GLUCOSE [1]: 135.67 mg/dL
- LACTATE DEHYDROGENASE [1]: 171 u/L
- LIPASE [1]: 9.5 u/L
- PHOSPHORUS [1]: 11.18 mg/dL
- POTASSIUM [1]: 6.25 MEQ/L
- SODIUM [1]: 144.87 MEQ/L
- TOTAL BILIRUBIN [1]: 0.2 mg/dL
- TOTAL PROTEIN [1]: 6.08 G/DL
- URIC ACID [1]: 0.65 mg/dL
- ABSOLUTE BASOPHIL [2]: 0 CELLS/uL
- ABSOLUTE EOSINOPHIL [2]: 14.5 CELLS/uL
- ABSOLUTE LYMPHOCYTE [2]: 7596.17 CELLS/uL
- ABSOLUTE MONOCYTE [2]: 69.67 CELLS/uL
- ABSOLUTE SEGMENTED NEUTROPHIL [2]: 503 CELLS/uL
- BASOPHIL [2]: 0%
- EOSINOPHIL [2]: 0.17%
- ERYTHROCYTE COUNT [2]: 5.49 x10E6/uL
- HEMATOCRIT [2]: 34.72%
- HEMOGLOBIN [2]: 13.47 G/DL
- LEUKOCYTE COUNT [2]: 8.18 x10E3/uL
- LYMPHOCYTE [2]: 92.17%
- MEAN CORPUSCULAR HEMOGLOBIN [2]: 24.57 pg
- MEAN CORPUSCULAR HEMOGLOBIN CONCENTRATION [2]: 38.82 G/DL
- MEAN CORPUSCULAR VOLUME [2]: 63.3 fL
- MONOCYTE [2]: 1%
- NEUTROPHIL [2]: 6.67%
- NUCLEATED RED BLOOD CELLS [2]: 0 /100WBC
- PLATELET COUNT [2]: 1141 x10E3/uL
- ALANINE AMINOTRANSFERASE [2]: 48.33 u/L
- ALBUMIN [2]: 4.07 G/DL
- ALKALINE PHOSPHATASE [2]: 395.67 u/L
- ASPARTATE AMINOTRANSFERASE [2]: 85.67 u/L
- BLOOD UREA NITROGEN [2]: 15.83 mg/dL
- CARBON DIOXIDE [2]: 31.33 mmol/L
- CHLORIDE [2]: 100.83 MEQ/L
- CHOLESTEROL [2]: 62.33 mg/dL
- CREATINE PHOSPHOKINASE [2]: 248.33 u/L
- CREATININE [2]: 0.2 mg/dL
- GLUCOSE [2]: 135.67 mg/dL
- LACTATE DEHYDROGENASE [2]: 141.33 u/L
- LIPASE [2]: 9.5 u/L
- PHOSPHORUS [2]: 10.73 mg/dL
- POTASSIUM [2]: 6.07 MEQ/L
- SODIUM [2]: 145.35 MEQ/L
- TOTAL BILIRUBIN [2]: 0.22 mg/dL
- TOTAL PROTEIN [2]: 6.12 G/DL
- URIC ACID [2]: 0.63 mg/dL
- ABSOLUTE BASOPHIL [3]: 0 CELLS/uL
- ABSOLUTE EOSINOPHIL [3]: 0 CELLS/uL
- ABSOLUTE LYMPHOCYTE [3]: 11252 CELLS/uL
- ABSOLUTE MONOCYTE [3]: 71.67 CELLS/uL
- ABSOLUTE SEGMENTED NEUTROPHIL [3]: 843 CELLS/uL
- BASOPHIL [3]: 0%
- EOSINOPHIL [3]: 0%
- ERYTHROCYTE COUNT [3]: 5.24 x10E6/uL
- HEMATOCRIT [3]: 32.97%
- HEMOGLOBIN [3]: 12.83 G/DL
- LEUKOCYTE COUNT [3]: 12.17 x10E3/uL
- LYMPHOCYTE [3]: 92.33%
- MEAN CORPUSCULAR HEMOGLOBIN [3]: 24.5 pg
- MEAN CORPUSCULAR HEMOGLOBIN CONCENTRATION [3]: 38.93 G/DL
- MEAN CORPUSCULAR VOLUME [3]: 62.97 fL
- MONOCYTE [3]: 0.67%
- NEUTROPHIL [3]: 7%
- NUCLEATED RED BLOOD CELLS [3]: 0 /100WBC
- PLATELET COUNT [3]: 939 x10E3/uL
- ALANINE AMINOTRANSFERASE [3]: 57 u/L
- ALBUMIN [3]: 4.03 G/DL
- ALKALINE PHOSPHATASE [3]: 444 u/L
- ASPARTATE AMINOTRANSFERASE [3]: 84.67 u/L
- BLOOD UREA NITROGEN [3]: 14.67 mg/dL
- CARBON DIOXIDE [3]: 33 mmol/L
- CHLORIDE [3]: 100 MEQ/L
- CHOLESTEROL [3]: 81.67 mg/dL
- CREATINE PHOSPHOKINASE [3]: 370 u/L
- CREATININE [3]: 0.37 mg/dL
- GLUCOSE [3]: 138.33 mg/dL
- LACTATE DEHYDROGENASE [3]: 111.33 u/L
- LIPASE [3]: 10.67 u/L
- PHOSPHORUS [3]: 11.57 mg/dL
- POTASSIUM [3]: 6.01 MEQ/L
- SODIUM [3]: 145.4 MEQ/L
- TOTAL BILIRUBIN [3]: 0.17 mg/dL
- TOTAL PROTEIN [3]: 5.77 G/DL
- URIC ACID [3]: 0.6 mg/dL
